In patent publication US20160214958A1, “COMPOUNDS AND USE FOR TREATING CANCER” (GLIONOVA AB, priority 2013, published 2016):

Columns and labels:
[1] = test system: glioma stem cell line U3013; assay: In vitro cancer cell and CSC viability assay (ATP quantification, CellTiterGlo); format: cell-based; conditions: Homo sapiens; 3000 cells/cm2, after 24 hours; read-out: EC50, viability of GSCs
Caspase-3 and Caspase-7 = Caspase-3 and Caspase-7 enzymatic activity in GSC; format: cell-based, human; conditions: 5-30 μM, 2 to 600 minutes
Procedure: A distinctive feature of apoptosis is the rapid loss of ATP associated with decoupling of the respiratory chain. Death of GSCs was therefore examined in the presence of the apoptosis inhibitor Q-VAD. […] However, Q-VAD only modestly rescued S10 treated cells from death at 3 and 7 hrs. […] Caspase-3 and Caspase-7 enzymatic activity was measured at 2, 15, 30, 60, 120, 120, 240, 360 and 600 minutes after addition of S10 at increasing concentrations from 5-30 μM. […] The rapid depletion of ATP by S10 led us to therefore examine the mitochondria. The accumulation of tetramethylrhodamine ethyl ester (TMRE) in mitochondria and […] is driven by their membrane potential. TMRE incorporation in mitochondria was largely unaffected by S10. […]
For measuring cell viability, cytotoxicity and apoptosis in GSC/fibroblast/mGlia cells were grown in 384-well microtiter plates using procedure described above. […] Cell viability, cytotoxcity and apoptosis were measured using CellTiter-Glo® Luminescent Cell Viability Assay (Promega), CytoTox-Glo Cytotoxicity Assay and […], according to manufacturer's instructions. […] Luminescence was measured using a Victor3 FA (Perkin Elmer) microtiterplate reader and the level of released Caspase 3/7 quantified relative to control using GraphPad Prism (v6.02) software.

[2] = test system: histone H3 trimethylation at lysine 27 (H3K27me3); assay: Western blot of GSC for H3K27me3; format: cell-based, human; conditions: GSC treated for 5 min to 26 hours
Procedure: Cell extracts were immunoblotted for phosphor-MKK4 (P-MKK4) and histone H3 trimethylation at lysine 27 (H3K27me3).
Whole-cell extracts were prepared in SDS-buffer (25 mM Tris-HCl, pH 7.5, 1 mM EDTA, protease inhibitor cocktail (Roche), and phosphatase inhibitors [2 mM sodium orthovanadate, 20 mM beta-glycerolphosphate], and 1% SDS). The samples were analysed by western blot as described previously (Aranda et al. (2008) Mol Cell Biol, 28, 5899-5911) with the following antibodies: anti-Histone H3 (Abcam), antitrimethyl(Lys27)-Histone H3 (Millipore) and anti-phospho(S257/Thr261)-SEK1/MKK4 (R&D Systems).

[3] = test system: S10-resistant GSCs (U3013MG); assay: Viability of S10-resistant GSCs surviving the shRNA screen; format: cell-based; conditions: Homo sapiens, cells surviving 14 μM S10 after shRNA library transduction, read-out: EC50 on GSC viability, S10-resistant GSCs
Source text: A genome wide screen with shRNA libraries was used to identify pathways for S10 induced macropinocytosis. The approach was based on the idea that depleting a key factor in the pathway should render GSCs refractive to S10 induced death. Three different DECIPHER pooled lentiviral shRNA libraries consisting of 82500 shRNA covering 15377 genes grouped into Human Module 1 (genes associated with various signaling pathways), Human Module 2 (disease-associated genes) and Human Module 3 (genes associated with cell surface, extracellular and DNA binding), were used to transduce U3013MG GSCs. Four days later, 14 μM S10 was added for one day after which cells were cultured in standard medium for five month. Surviving cells were thereafter dissociated and further expanded. […] Phospho-MKK4 increased within 5 min of S10 exposure and remained at similar levels for at least 26 hrs of stimulation. Abrogation of MAP2K4 activity by five independent shRNAs led to marked increase of the EC50 viability value of S10-treated GSC. […] MKK4 was thereafter confirmed as a required protein for S10 induced macropinocytosis. […] Thus, the distinctive feature of susceptibility to macropinocytosis and death in GSCs require MKK4 activity.
GSCs grown to 70% confluency were transduced by DECIPHER pooled lentiviral shRNA libraries consisting of Human Module 1, 2 and 3 using earlier described protocols (Pasini et al., 2008). […]

U3013MG GSC xenograft = assay: Mouse Kaplan-Meier experiment, oral S10 at terminal stage of GBM; format: in vivo, NOD-SCID mice; conditions: 20 mg/kg per orally for five days
Procedure: The bioavailability of S10 by oral and intraperitoneal injection in vivo was investigated. […] In a second delivery regimen, treatment was performed per orally (20 mg/kg) twice daily for five days. Treatment started at a terminal stage of GBM, i.e. six weeks after engraftment of U3013M GSCs and median survival from the time of treatment initiation and the Hazard ratio were scored.
For Kaplan-Meier experiments, 100,000 GSC from U3013MG we injected into NOD-SCID mice as described above. Mice were then monitored for 6 weeks and then oral administration regiment was started. Mice were either given 200 μl of water or S10 in water corresponding to 20 mg/kg, via oral gavage. A total of nine animals were taken for each treatment (control, S10). The oral administration was followed once a day for five days following which the administration was stopped and the animals monitored till they reach the humane end point, after which they were sacrificed.

OC(c1cc(-c2ccc(Cl)cc2)nc2ccccc12)C1CCCCN1 (racemic) [Compound S10, (2-(4-chlorophenyl)quinolin-4-yl)(piperidin-2-yl)methanol]
EC50 [1]: 2.36 µM | caspase activity relative to DMSO control (Caspase-3 and Caspase-7): no effect on caspase activity | effect on H3K27me3 [2]: lack of inhibition effects | EC50 [3]: 14.3 ± 1.16 µM | Hazard ratio (rate of death untreated vs S10 treated group) (U3013MG GSC xenograft; comparison of the two survival curves): 2.293 | median survival from the time of treatment initiation (U3013MG GSC xenograft; start six weeks after engraftment, n=9, DMSO treated animals 7 days): 12 days
